From patent US10875851B2, “Factor XIIa inhibitors” (Merck Sharp & Dohme Corp., priority 2016, dated 2020) come the findings set out here.

The experiment has as its target human Factor XIIa (Homo sapiens (Human), UniProt P00748). As to the kind of experiment: Factor XIIa Assay. Type of experiment: biochemical. The settings on record: purified human Factor XIIa 500 pM; substrate n-Acetyl-Lys-Pro-Arg-AFC 100 μM; pH 7.4; read-out: FXIIa IC50. In outline: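 Purified human FXIIa at 500 pM final with 100 μM n-Acetyl-Lys-Pro-Arg-AFC in 50 mM HEPES, 150 mM NaCl, 5 mM CaCl2, 0.1% PEG 8000, pH 7.4, at room temperature or 37° C. Initial fluorogenic hydrolysis rates measured after enzyme–inhibitor equilibration; IC50 taken where Vi=Vo/2.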

Sequence of human Factor XIIa (P00748 373-615): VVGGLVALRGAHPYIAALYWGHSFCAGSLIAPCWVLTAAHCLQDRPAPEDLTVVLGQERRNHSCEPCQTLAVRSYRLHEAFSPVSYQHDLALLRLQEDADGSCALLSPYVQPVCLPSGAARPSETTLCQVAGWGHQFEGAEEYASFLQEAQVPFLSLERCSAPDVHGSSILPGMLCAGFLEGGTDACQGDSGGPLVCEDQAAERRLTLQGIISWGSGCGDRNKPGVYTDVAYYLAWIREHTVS

For `Cc1cccc([C@@H]2OC(N3CCN(C(=O)[C@@H](CCCCNS(C)(=O)=O)NC4CCCCC4)[C@H](C(=O)NCc4cccs4)C3)=N[C@H]2C)c1` [Example 134, (2S)-1-[N^2-cyclohexyl-N^6-(methylsulfonyl)-D-lysyl]-4-[(4S,5S)-4-methyl-5-(3-methylphenyl)-4,5-dihydro-1,3-oxazol-2-yl]-N-(thiophen-2-ylmethyl)piperazine-2-carboxamide], the half-maximal inhibitory concentration (IC50) – broadly, the concentration needed to halve the response being measured – stood at 10.3 nM.

Take `C[C@@H]1N=C(N2CCN(C(=O)[C@@H](CCCCN(C)C)NC3CCC4(CC3)CCN(Cc3ccccc3)C4)[C@H](C(=O)NCc3cccs3)C2)O[C@H]1c1ccccc1` (stereo partly drawn) [Example 135, (2S)-1-[N^2-(2-benzyl-2-azaspiro[4.5]dec-8-yl)-N^6,N^6-dimethyl-D-lysyl]-4-[(4S,5S)-4-methyl-5-phenyl-4,5-dihydro-1,3-oxazol-2-yl]-N-(thiophen-2-ylmethyl)piperazine-2-carboxamide]: the half-maximal inhibitory concentration (IC50) came out at 0.8 nM.

`C[C@@H]1N=C(N2CCN(C(=O)[C@H](CCCCN(C)C)NC3CCC4(CC3)CCN(Cc3ccccc3)C4)[C@H](C(=O)NCc3cccs3)C2)O[C@H]1c1ccccc1` (stereo partly drawn) [Example 136]: the IC50 came to 23.2 nM.

With `CC1(C)N=C(N2CCN(C(=O)[C@@H](CC3CCCCC3)NC3CCCCC3)[C@H](C(=O)NCc3cccs3)C2)OC1c1ccccc1` (stereo partly drawn) [Example 137, (2S)-1-(N,3-dicyclohexyl-D-alanyl)-4-(4,4-dimethyl-5-phenyl-4,5-dihydro-1,3-oxazol-2-yl)-N-(thiophen-2-ylmethyl)piperazine-2-carboxamide], the half-maximal inhibitory concentration (IC50) worked out at 23.2 nM.

With `C[C@@H]1N=C(N2CCN(C(=O)[C@@H](CCCCN(C)C)NC3CCCCC3)[C@H](C(=O)NCc3cccs3)C2)O[C@H]1c1cccc(C#N)c1` [Example 138, (2S)-4[(4S,5S)-5-(3-cyanophenyl)-4-methyl-4,5-dihydro-1,3-oxazol-2-yl]-1-(N^2-cyclohexyl-N^6,N^6-dimethyl-D-lysyl)-N-(thiophen-2-ylmethyl)piperazine-2-carboxamide], the 50% inhibitory concentration (IC50) came out at 1.4 nM.

Regarding `CN(C)CCCC[C@H](C(=O)N1CCN(C2=NC(C)(C)C(c3ccccc3)O2)C[C@H]1C(=O)NCc1cccc(Cl)c1)N(C)C` (stereo partly drawn) [Example 139, (2S)-N-(3-chlorobenzyl)-4-(4,4-dimethyl-5-phenyl-4,5-dihydro-1,3-oxazol-2-yl)-1-(N^2,N^2,N^6,N^6-tetramethyl-D-lysyl)piperazine-2-carboxamide], the IC50 is 52.4 nM.

For the compound `CC1(C)N=C(N2CCN(C(=O)[C@@H](CC3CCCCC3)NC3CCCCC3)[C@H](C(=O)NCc3cccs3)C2)OC1c1ccccc1` (stereo partly drawn) [Example 140, (2S)-1-(N,3-dicyclohexyl-D-alanyl)-4-(4,4-dimethyl-5-phenyl-4,5-dihydro-1,3-oxazol-2-yl)-N-(thiophen-2-ylmethyl)piperazine-2-carboxamide], the IC50 came to 19 nM.

Regarding `CN(C)CCCC[C@@H](NC1CCC2(CC1)CCN(Cc1ccccc1)C2)C(=O)N1CCN(C2=NC(C)(C)CO2)C[C@H]1C(=O)NCc1cccs1` (stereo partly drawn) [Example 141, (2S)-1-[N^2-(2-benzyl-2-azaspiro[4.5]dec-8-yl)-N^6,N^6-dimethyl-D-lysyl]-4-(4,4-dimethyl-4,5-dihydro-1,3-oxazol-2-yl)-N-(thiophen-2-ylmethyl)piperazine-2-carboxamide], the IC50 came to 9.2 nM.

As to `C[C@@H]1N=C(N2CCN(C(=O)[C@@H](CCCCN(C)C)NC3CCC4(CC3)CCN(Cc3ccccc3)C4)[C@H](C(=O)NCc3cccs3)C2)O[C@H]1c1ccccc1` (stereo partly drawn) [Example 142, (2S)-1-[N^2-(2-benzyl-2-azaspiro[4.5]dec-8-yl)-N^6,N^6-dimethyl-D-lysyl]-4-[(4S,5S)-4-methyl-5-phenyl-4,5-dihydro-1,3-oxazol-2-yl]-N-(thiophen-2-ylmethyl)piperazine-2-carboxamide], the IC50 is 0.4 nM.
